This is an account of results in paper PMC9607427, “Novel 7-Chloro-(4-thioalkylquinoline) Derivatives: Synthesis and Antiproliferative Activity through Inducing Apoptosis and DNA/RNA Damage” (Pharmaceuticals, 2022).

In data set [1] the test system is K562 (chronic myeloid leukemia). Description: Cytotoxic MTS assay, K562. Type of data set: cell-based, human. How it is done:
(§1) In vitro cytotoxic activity of final compounds 5–82 was evaluated after 3 days of incubation against eight cell lines derived from human solid tumors including lung (A549 cells) and colon (HCT116 and HCT116p53−/−) carcinomas, as well as leukemia cell lines (CCRF-CEM, CEM-DNR, K562, and K562-TAX) and osteosarcoma (U2OS cells). For comparison, non-malignant BJ and MRC-5 fibroblasts, and BJLD and MCR-5LD fibroblasts doxorubicin-resistant cell lines were used. Concentrations inhibiting the cell growth by 50% (IC50) were determined using a quantitative metabolic staining with 3-(4,5-dimethylthiazol-2yl)-5-(3-carboxymethoxyphenyl)-2-(4-sulfophenyl)-2H-tetrazolium (MTS) and are summarized in (Table 3).
(§2) Cytotoxic activity was determined by MTS assay following 72 h of incubation. IC50 is the lowest concentration that kills 50% of cells. The standard deviation in cytotoxicity assays is typically up to 20% of the average value. […] The tested cell lines: A549 (lung adenocarcinoma), BJ (noncancerous human fibroblasts from foreskin), BJLD (human lung fibroblast doxorubicin-resistant), CCRF-CEM (childhood T cell acute lymphoblastic leukemia), a daunorubicin-resistant subline of CCRF-CEM cells (CEM-DNR bulk), HCT116 (colorectal carcinoma), HCT116p53−/− (HCT116 with deleted p53 gene), K562 (chronic myeloid leukemia), K562-TAX (chronic myeloid leukemia paclitaxel-resistant subline), MRC-5 (noncancerous human lung fibroblasts), MRC-5LD (noncancerous human lung fibroblasts doxorubicin-resistant), and U2OS (osteosarcoma).
(§3) All cell lines were purchased from the American Tissue Culture Collection (ATCC). The A549 cell line is lung adenocarcinoma. MRC-5 and BJ cell lines were used as a non-tumor control and represent human fibroblasts. (MRC-5 LD and BJLD) are doxorubicin-resistant human lung fibroblast cell lines. The CCRF-CEM line is derived from T lymphoblastic leukemia, evincing high chemosensitivity, whereas K562 represent cells from an […] patient sample with bcr-abl translocation. The daunorubicin-resistant subline of CCRF-CEM cells (CEM-DNR bulk) and paclitaxel-resistant subline K562-TAX were selected in our laboratory by the cultivation of maternal cell lines in increasing concentrations of daunorubicin or paclitaxel, respectively. The CEM-DNR bulk cells overexpress MRP-1 and P-glycoprotein protein, whereas K562-TAX cells overexpress P-glycoprotein only. Both proteins belong to the family of ABC transporters and are involved in the primary and/or acquired multidrug-resistance phenomenon. The U2OS cell line is derived from osteosarcoma, HCT116 is a colorectal tumor cell line and its p53 gene knock-down counterpart (HCT116p53−/−, Horizon Discovery Ltd., Cambridge, UK) is a model of human cancers with p53 mutation frequently associated with poor prognosis. The cells were maintained in nunc/corning 80 cm^2 plastic tissue culture flasks and cultured in a cell culture medium according to ATCC or Horizon recommendations (DMEM/RPMI 1640 with 5 g/L glucose, 2 mM glutamine, 100 U/mL penicillin, […], 10% fetal calf serum, and NaHCO3).
(§4) The activity of compounds was determined using a standard 3-(4,5-dimethylthiazol-2-yl)-5-(3-carboxymethoxyphenyl)-2-(4-sulfophenyl)-2H-tetrazolium (MTS) and it was performed at the Institute of Molecular and Translational Medicine by a robotic platform (High-ResBiosolutions). Cell suspensions were prepared and diluted according to the particular cell type and the expected target cell density (25,000–35,000 cells/mL based on cell growth characteristics). Cells were added by automatic pipettor (30 µL) into 384-well microtiter plates. All tested compounds were dissolved in 100% DMSO and four-fold dilutions of the intended test concentration were added in 0.15 µL aliquots at time zero to the microtiter plate wells by the echo acoustic non-contact liquid handler Echo550 (Labcyte). […]
On the technique in general: Formazan colour is commonly taken as a measure of viable cells.

Data set [2] concerns CCRF-CEM (childhood T cell acute lymphoblastic leukemia). In words: Cytotoxic MTS assay, CCRF-CEM. It counts as cell-based, human. The protocol:
as §1, §2, §3, §4

In data set [3] the test system is HCT116 (colorectal carcinoma). Description: Cytotoxic MTS assay, HCT116. Type of data set: cell-based, human. How it is done: as §1, §2, §3, §4
Data set [4] concerns BJ (noncancerous human fibroblasts from foreskin). In words: Cytotoxic MTS assay, BJ. It counts as cell-based. The protocol: as §1, §2, §3, §4
The test system of data set [5] is HCT116p53−/− (HCT116 with deleted p53 gene). In words: Cytotoxic MTS assay, HCT116p53−/−. It counts as cell-based, human. The protocol:
as §1, §2, §3, §4

Data set [6] has as its system A549 (lung adenocarcinoma). Description: Cytotoxic MTS assay, A549. It counts as cell-based, human. How it is done:
as §1, §2, §3, §4

The subject of data set [7] is MRC-5 (noncancerous human lung fibroblasts). In words: Cytotoxic MTS assay, MRC-5. It counts as cell-based. How it is done:
as §1, §2, §3, §4

A further data set relates to U2OS (osteosarcoma). Description: Cytotoxic MTS assay, U2OS. Type of data set: cell-based, human. The protocol: as §1, §2, §3, §4
In data set [8] the test system is BJLD (human lung fibroblast doxorubicin-resistant). Description: Cytotoxic MTS assay, BJLD. Type of data set: cell-based. How it is done: as §1, §2, §3, §4
The subject of data set [9] is CEM-DNR bulk (daunorubicin-resistant subline of CCRF-CEM cells). In words: Cytotoxic MTS assay, CEM-DNR. Type of data set: cell-based, human. The protocol:
as §1, §2, §3, §4

The subject of data set [10] is K562-TAX (chronic myeloid leukemia paclitaxel-resistant subline). In words: Cytotoxic MTS assay, K562-TAX. It counts as cell-based, human. How it is done:
as §1, §2, §3, §4

Data set [11] has as its system MRC-5LD (noncancerous human lung fibroblasts doxorubicin-resistant). In words: Cytotoxic MTS assay, MRC-5LD. It counts as cell-based. How it is done: as §1, §2, §3, §4

Each structure is given as a SMILES string.

As a reminder, the IC50 is the midpoint of a concentration-inhibition curve. Lower therefore signals higher potency. Regarding `O=C(OCCCS(=O)(=O)c1cc[n+]([O-])c2cc(Cl)ccc12)c1ccc(C(F)(F)F)cc1` [Compound 82, 3-[(N-Oxide 7-chloroquinolin-4-yl)sulfonyl]propyl-4-(trifluoromethyl)benzoate], the IC50 is 6.24 µM in data set [1]; 1.05 µM in data set [2]; 4.9 µM in [3]; 23.5 µM in data set [4]; 6.59 µM in [5]; 6.66 µM in data set [6]. Also, the IC50 worked out at 23.7 µM in [7]; 5.05 µM in the data set on U2OS (osteosarcoma); 13.9 µM in data set [8]; 3.46 µM in data set [9]; 4.01 µM in [10]; 19.8 µM in data set [11].
Consider `COc1ccccc1C(=O)OCCCS(=O)(=O)c1cc[n+]([O-])c2cc(Cl)ccc12` [Compound 78, 3-[(N-Oxide 7-chloroquinolin-4-yl)sulfonyl]propyl-2-methoxybenzoate], for which the IC50 in data set [1] came to 7.37 µM; in data set [2], 2.63 µM; in data set [3], 5.64 µM; in [4], 25 µM; in data set [5], 6.99 µM; in data set [6] it was 7.75 µM. The IC50 in [7] stood at 22.6 µM; in the data set on U2OS (osteosarcoma) it was 7.18 µM; in [8] it was 19.7 µM; in [9], 9.18 µM; in [10], 8.78 µM; in [11] it was 19.5 µM.
With `COc1cc(OC)c(C(=O)OCCCS(=O)(=O)c2cc[n+]([O-])c3cc(Cl)ccc23)cc1OC` [Compound 76, 3-[(N-Oxide 7-chloroquinolin-4-yl)sulfonyl]propyl-2,4,5-trimethoxybenzoate], the IC50 in data set [1] was determined as 8.77 µM; in data set [2], 2.22 µM; in data set [3], 7.96 µM; in data set [4] it was 35.7 µM; in data set [5], 8.66 µM; in data set [6] it was 11.4 µM. The concentration for half-maximal inhibition (IC50) turned out to be 22.5 µM in [7]; 9.33 µM with U2OS (osteosarcoma); 24.4 µM in data set [8]; 18.1 µM in data set [9]; 19.9 µM in data set [10]; 19.6 µM in data set [11].
For the compound `Cc1ccc([N+](=O)[O-])c(C(=O)OCCCS(=O)(=O)c2cc[n+]([O-])c3cc(Cl)ccc23)c1` [Compound 80, 3-[(N-Oxide 7-chloroquinolin-4-yl)sulfonyl]propyl-5-methyl-2-nitrobenzoate], the IC50 in [1] came out at 6.75 µM; in data set [2] it was 1.49 µM; in [3] it was 4.61 µM; in [4], 22.2 µM; in data set [5], 6 µM; in data set [6] it was 6.44 µM. Besides, the IC50 turned out to be 20 µM in [7]; 5.74 µM with U2OS (osteosarcoma); 15.9 µM in data set [8]; 6.78 µM in data set [9]; 6 µM in data set [10]; 16.3 µM in data set [11].
With `COc1cccc(C(=O)OCCS(=O)(=O)c2cc[n+]([O-])c3cc(Cl)ccc23)c1OC` [Compound 64, 2-[(N-Oxide 7-chloroquinolin-4-yl)sulfonyl]ethyl-2,3-dimethoxybenzoate], the IC50 was determined as 5.51 µM in data set [1]; 0.71 µM in [2]; 8.18 µM in data set [3]; 9.19 µM in [4]; 7.68 µM in data set [5]; 28.4 µM in data set [6]. Further, the IC50 was found to be 6.08 µM in data set [7]; 7.43 µM in the data set on U2OS (osteosarcoma); 8.95 µM in data set [8]; 8.99 µM in data set [9]; 5.65 µM in data set [10]; 3.28 µM in data set [11].
Consider `COc1cc(C(=O)OCCCS(=O)(=O)c2cc[n+]([O-])c3cc(Cl)ccc23)cc(OC)c1OC` [Compound 77, 3-[(N-Oxide 7-chloroquinolin-4-yl)sulfonyl]propyl-3,4,5-trimethoxybenzoate], for which the IC50 in data set [1] stood at 7.5 µM; in data set [2] it was 1.58 µM; in [3] it was 6.51 µM; in data set [4] it was 28.6 µM; in [5] it was 6.75 µM; in data set [6] it was 9.02 µM. Besides, the IC50 in data set [7] is 25.6 µM; in the data set with U2OS (osteosarcoma), 7.81 µM; in data set [8], 21.6 µM; in [9], 12 µM; in data set [10], 10.9 µM; in [11], 20.1 µM.
What is called melting point is the temperature, or range, at which the solid turns liquid. The compound `O=C(OCCSc1ccnc2cc(Cl)ccc12)c1cccc(Cl)c1` [Compound 16, 2-[(7-Chloroquinolin-4-yl)sulfanyl]ethyl 3-chlorobenzoate] showed a melting point of 94 to 96 °C.
As to `Cc1ccc([N+](=O)[O-])c(C(=O)OCCSc2ccnc3cc(Cl)ccc23)c1` [Compound 18, 2-[(7-Chloroquinolin-4-yl)sulfanyl]ethyl 5-methyl-2-nitrobenzoate], the melting point is 93 to 95 °C.
The compound `Cc1cc(C)cc(C(=O)OCCSc2ccnc3cc(Cl)ccc23)c1` [Compound 19, 2-[(7-Chloroquinolin-4-yl)sulfanyl]ethyl 3,5-dimethylbenzoate] showed a melting point of 102 to 104 °C.
Same read-out and setting: to `COc1cc(C(=O)OCCCSc2ccnc3cc(Cl)ccc23)cc(OC)c1OC` [Compound 30, 3-[(7-Chloroquinolin-4-yl)sulfanyl]propyl-3,4,5-trimethoxybenzoate] belongs 98 to 100 °C; to `COc1ccc(C(=O)OCCSc2ccnc3cc(Cl)ccc23)cc1` [Compound 5, 2-[(7-Chloroquinolin-4-yl)sulfanyl]ethyl-4-methoxybenzoate], 116 to 118 °C; to `COc1cccc(C(=O)OCC[S+]([O-])c2ccnc3cc(Cl)ccc23)c1OC` (stereo not shown) [Compound 43, 2-[(7-Chloroquinolin-4-yl)sulfinyl]ethyl-2,3-dimethoxybenzoate], 110 °C.
On the same count and under the same terms, to `COc1ccc(OC)c(C(=O)OCC[S+]([O-])c2ccnc3cc(Cl)ccc23)c1` (stereo not shown) [Compound 44, 2-[(7-Chloroquinolin-4-yl)sulfinyl]ethyl-2,5-dimethoxybenzoate] belongs 112 to 113 °C; to `O=C(OCCCSc1ccnc2cc(Cl)ccc12)c1ccc(C(F)(F)F)cc1` [Compound 38, 3-[(7-Chloroquinolin-4-yl)sulfanyl]propyl-4-(trifluoromethyl)benzoate], 122 to 124 °C; to `COc1cccc(C(=O)OCCSc2ccnc3cc(Cl)ccc23)c1OC` [Compound 6, 2-[(7-Chloroquinolin-4-yl)sulfanyl]ethyl 2,3-dimethoxybenzoate], 108 to 109 °C.
Same read-out and setting: the same measure for `COc1ccc(C(=O)OCC[S+]([O-])c2ccnc3cc(Cl)ccc23)cc1` (stereo not shown) [Compound 42, 2-[(7-Chloroquinolin-4-yl)sulfinyl]ethyl-4-methoxybenzoate]: 126 to 128 °C.
